In ChEMBL document CHEMBL4265899, “Trisubstituted thiazoles as potent and selective inhibitors of Plasmodium falciparum protein kinase G (PfPKG)” (Bioorg Med Chem Lett, 2018):

Assays:
[1] = target: Myosin light chain kinase, smooth muscle (Homo sapiens) (UniProt Q15746); assay: Inhibition of human SmMLCK at 100 nM
[2] = target: Dual specificity tyrosine-phosphorylation-regulated kinase 1A (Homo sapiens) (UniProt Q13627); assay: Inhibition of human DYRK1A at 100 nM
[3] = target: Ephrin type-A receptor 2 (Homo sapiens) (UniProt P29317); assay: Inhibition of human EPHA2 at 100 nM
[4] = Permeability of the compound by PAMPA
[5] = target: Receptor-interacting serine/threonine-protein kinase 2 (Homo sapiens) (UniProt O43353); assay: Inhibition of human RIPK2 at 100 nM
[6] = target: Ribosomal protein S6 kinase beta-1 (Homo sapiens) (UniProt P23443); assay: Inhibition of human S6K1 at 100 nM
Chain of Ribosomal protein S6 kinase beta-1 (Homo sapiens) (P23443 whole entry, looked up): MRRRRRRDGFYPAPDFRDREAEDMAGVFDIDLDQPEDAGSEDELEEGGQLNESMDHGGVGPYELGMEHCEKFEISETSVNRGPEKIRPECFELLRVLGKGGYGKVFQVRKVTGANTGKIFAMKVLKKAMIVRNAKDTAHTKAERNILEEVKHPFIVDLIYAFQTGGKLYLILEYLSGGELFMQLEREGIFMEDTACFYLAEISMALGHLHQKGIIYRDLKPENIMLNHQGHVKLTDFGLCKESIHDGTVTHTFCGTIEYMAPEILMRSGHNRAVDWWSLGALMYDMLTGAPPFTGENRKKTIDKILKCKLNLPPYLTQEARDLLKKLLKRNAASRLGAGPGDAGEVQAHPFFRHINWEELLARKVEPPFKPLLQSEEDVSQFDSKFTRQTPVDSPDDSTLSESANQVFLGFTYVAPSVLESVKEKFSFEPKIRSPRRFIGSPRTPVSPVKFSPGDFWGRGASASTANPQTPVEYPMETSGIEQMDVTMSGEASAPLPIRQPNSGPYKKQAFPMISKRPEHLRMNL

[7] = target: Serine/threonine-protein kinase 26 (Homo sapiens) (UniProt Q9P289); assay: Inhibition of human MST4 at 100 nM
[8] = target: MAP/microtubule affinity-regulating kinase 3 (Homo sapiens) (UniProt P27448); assay: Inhibition of human MARK3 at 100 nM
[9] = target: Rho-associated protein kinase 2 (Homo sapiens) (UniProt O75116); assay: Inhibition of human ROCK2 at 100 nM
Chain of Rho-associated protein kinase 2 (Homo sapiens) (O75116 whole entry, looked up): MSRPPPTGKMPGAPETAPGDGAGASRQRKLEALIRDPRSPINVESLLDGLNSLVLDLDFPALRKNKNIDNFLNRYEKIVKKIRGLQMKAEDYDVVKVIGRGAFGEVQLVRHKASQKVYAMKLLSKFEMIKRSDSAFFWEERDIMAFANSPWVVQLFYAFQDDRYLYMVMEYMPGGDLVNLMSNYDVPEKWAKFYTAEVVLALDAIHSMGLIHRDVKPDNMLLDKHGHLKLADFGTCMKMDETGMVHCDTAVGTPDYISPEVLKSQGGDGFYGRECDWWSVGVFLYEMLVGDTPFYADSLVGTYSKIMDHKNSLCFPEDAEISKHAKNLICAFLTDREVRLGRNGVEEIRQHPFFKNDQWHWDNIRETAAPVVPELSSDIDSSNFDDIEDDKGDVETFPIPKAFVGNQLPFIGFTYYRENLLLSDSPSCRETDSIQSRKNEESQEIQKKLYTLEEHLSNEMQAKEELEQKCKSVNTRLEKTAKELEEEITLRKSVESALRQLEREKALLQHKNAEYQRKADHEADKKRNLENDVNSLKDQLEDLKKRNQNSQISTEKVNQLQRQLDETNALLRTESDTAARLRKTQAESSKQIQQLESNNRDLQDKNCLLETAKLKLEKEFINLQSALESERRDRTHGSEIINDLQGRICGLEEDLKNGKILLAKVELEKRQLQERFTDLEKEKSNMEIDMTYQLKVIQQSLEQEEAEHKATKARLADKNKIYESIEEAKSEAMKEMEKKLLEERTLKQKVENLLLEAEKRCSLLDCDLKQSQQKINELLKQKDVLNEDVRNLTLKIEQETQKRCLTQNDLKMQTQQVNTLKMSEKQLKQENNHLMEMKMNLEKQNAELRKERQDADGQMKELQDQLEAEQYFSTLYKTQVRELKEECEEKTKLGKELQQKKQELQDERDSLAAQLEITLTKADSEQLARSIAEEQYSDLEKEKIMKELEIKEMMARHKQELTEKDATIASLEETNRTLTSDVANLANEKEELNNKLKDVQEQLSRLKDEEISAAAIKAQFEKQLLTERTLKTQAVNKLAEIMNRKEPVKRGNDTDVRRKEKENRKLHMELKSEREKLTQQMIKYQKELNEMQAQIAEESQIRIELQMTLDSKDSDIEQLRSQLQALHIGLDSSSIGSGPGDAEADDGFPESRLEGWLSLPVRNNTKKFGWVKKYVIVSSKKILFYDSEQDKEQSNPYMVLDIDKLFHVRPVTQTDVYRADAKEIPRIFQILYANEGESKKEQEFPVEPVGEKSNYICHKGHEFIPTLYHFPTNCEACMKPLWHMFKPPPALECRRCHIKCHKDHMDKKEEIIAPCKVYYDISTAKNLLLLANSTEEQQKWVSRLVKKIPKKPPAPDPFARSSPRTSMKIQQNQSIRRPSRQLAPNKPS

[10] = target: Receptor tyrosine-protein kinase erbB-4 (Homo sapiens) (UniProt Q15303); assay: Inhibition of human HER4 at 100 nM
[11] = target: 3-phosphoinositide-dependent protein kinase 1 (Homo sapiens) (UniProt O15530); assay: Inhibition of human PDK1 at 100 nM
[12] = target: Ephrin type-B receptor 3 (Homo sapiens) (UniProt P54753); assay: Inhibition of human EPHB3 at 100 nM
[13] = target: Aurora kinase B (Homo sapiens) (UniProt Q96GD4); assay: Inhibition of human Aurora B at 100 nM
Chain of Aurora kinase B (Homo sapiens) (Q96GD4 whole entry): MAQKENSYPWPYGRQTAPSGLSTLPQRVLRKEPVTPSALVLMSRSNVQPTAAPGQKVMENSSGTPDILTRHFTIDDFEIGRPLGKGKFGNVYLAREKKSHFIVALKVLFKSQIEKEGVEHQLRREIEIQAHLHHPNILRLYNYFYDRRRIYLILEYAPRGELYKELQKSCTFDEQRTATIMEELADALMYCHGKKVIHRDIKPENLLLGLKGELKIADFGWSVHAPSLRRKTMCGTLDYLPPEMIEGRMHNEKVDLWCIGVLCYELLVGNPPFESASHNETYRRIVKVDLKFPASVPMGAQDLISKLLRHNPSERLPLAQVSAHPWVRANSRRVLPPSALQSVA

[14] = target: Mitogen-activated protein kinase 14 (Homo sapiens) (UniProt Q16539); assay: Inhibition of human p38a MAPK at 100 nM
[15] = target: Mitogen-activated protein kinase kinase kinase kinase 2 (Homo sapiens) (UniProt Q12851); assay: Inhibition of human GCK at 100 nM
Chain of Mitogen-activated protein kinase kinase kinase kinase 2 (Homo sapiens) (Q12851 whole entry): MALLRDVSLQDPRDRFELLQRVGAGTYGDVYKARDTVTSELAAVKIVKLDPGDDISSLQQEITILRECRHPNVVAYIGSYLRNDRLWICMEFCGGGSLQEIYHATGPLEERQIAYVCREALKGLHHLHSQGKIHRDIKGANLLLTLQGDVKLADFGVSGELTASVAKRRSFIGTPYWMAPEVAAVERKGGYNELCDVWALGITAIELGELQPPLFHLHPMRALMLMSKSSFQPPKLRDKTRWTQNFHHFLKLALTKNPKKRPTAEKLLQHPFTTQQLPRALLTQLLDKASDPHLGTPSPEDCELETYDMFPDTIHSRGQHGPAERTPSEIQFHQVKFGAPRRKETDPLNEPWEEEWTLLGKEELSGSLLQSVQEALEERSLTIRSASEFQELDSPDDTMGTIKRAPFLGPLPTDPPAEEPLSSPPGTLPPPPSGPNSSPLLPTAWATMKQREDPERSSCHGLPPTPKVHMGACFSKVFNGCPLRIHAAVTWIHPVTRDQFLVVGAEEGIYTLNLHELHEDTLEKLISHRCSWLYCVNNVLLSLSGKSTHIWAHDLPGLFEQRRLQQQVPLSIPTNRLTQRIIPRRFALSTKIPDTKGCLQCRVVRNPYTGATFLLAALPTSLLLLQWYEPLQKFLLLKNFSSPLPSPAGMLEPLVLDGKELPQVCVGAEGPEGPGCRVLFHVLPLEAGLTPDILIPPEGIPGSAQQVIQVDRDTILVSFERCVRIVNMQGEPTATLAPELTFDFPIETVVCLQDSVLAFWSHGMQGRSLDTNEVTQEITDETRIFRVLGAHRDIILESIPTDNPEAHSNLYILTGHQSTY

[16] = target: Tyrosine-protein kinase BTK (Homo sapiens) (UniProt Q06187); assay: Inhibition of human BTK at 100 nM
[17] = target: NUAK family SNF1-like kinase 1 (Homo sapiens) (UniProt O60285); assay: Inhibition of human NUAK1 at 100 nM
Chain of NUAK family SNF1-like kinase 1 (Homo sapiens) (O60285 whole entry): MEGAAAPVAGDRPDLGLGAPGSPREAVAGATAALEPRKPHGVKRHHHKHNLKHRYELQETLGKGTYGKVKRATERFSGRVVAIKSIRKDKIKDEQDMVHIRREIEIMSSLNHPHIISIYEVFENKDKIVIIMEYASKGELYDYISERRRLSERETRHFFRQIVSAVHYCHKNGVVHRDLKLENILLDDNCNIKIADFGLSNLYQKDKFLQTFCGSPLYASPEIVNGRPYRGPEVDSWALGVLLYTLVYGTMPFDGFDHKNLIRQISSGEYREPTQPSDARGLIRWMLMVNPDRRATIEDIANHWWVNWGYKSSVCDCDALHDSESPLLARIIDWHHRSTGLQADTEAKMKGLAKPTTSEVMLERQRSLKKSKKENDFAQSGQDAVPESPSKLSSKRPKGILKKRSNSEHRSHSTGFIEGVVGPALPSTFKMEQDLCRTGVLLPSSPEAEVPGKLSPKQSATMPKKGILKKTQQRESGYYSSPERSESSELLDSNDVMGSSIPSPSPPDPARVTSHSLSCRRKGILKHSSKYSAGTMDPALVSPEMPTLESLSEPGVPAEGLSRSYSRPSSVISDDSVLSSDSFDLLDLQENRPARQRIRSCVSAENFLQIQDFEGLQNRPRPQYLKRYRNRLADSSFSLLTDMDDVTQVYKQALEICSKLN

[18] = target: Dual specificity protein kinase TTK (Homo sapiens) (UniProt P33981); assay: Inhibition of human TTK at 100 nM
Chain of Dual specificity protein kinase TTK (Homo sapiens) (P33981 whole entry): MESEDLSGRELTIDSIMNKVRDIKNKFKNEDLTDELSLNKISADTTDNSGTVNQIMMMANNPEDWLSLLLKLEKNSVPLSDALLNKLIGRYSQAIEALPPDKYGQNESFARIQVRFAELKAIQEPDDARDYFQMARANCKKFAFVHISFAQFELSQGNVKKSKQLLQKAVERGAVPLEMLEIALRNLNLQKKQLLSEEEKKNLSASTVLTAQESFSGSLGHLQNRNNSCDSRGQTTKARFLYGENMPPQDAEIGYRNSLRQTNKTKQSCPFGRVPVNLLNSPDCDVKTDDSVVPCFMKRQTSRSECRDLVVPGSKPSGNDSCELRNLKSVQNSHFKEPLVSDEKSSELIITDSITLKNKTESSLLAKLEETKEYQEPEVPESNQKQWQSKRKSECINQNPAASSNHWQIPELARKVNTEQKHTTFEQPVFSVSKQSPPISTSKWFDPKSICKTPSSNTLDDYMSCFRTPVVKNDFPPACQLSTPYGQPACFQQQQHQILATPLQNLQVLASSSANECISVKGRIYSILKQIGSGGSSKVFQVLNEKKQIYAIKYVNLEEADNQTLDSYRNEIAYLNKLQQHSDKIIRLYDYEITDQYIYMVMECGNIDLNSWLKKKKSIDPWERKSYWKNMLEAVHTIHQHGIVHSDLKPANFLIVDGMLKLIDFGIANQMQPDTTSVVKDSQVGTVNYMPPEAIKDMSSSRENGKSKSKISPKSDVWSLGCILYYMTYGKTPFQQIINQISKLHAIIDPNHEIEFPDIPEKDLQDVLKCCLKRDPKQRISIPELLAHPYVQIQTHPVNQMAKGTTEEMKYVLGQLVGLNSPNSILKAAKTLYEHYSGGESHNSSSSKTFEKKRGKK

[19] = target: Serine/threonine-protein kinase Sgk1 (Homo sapiens) (UniProt O00141); assay: Inhibition of human SGK1 at 100 nM
Chain of Serine/threonine-protein kinase Sgk1 (Homo sapiens) (O00141 whole entry): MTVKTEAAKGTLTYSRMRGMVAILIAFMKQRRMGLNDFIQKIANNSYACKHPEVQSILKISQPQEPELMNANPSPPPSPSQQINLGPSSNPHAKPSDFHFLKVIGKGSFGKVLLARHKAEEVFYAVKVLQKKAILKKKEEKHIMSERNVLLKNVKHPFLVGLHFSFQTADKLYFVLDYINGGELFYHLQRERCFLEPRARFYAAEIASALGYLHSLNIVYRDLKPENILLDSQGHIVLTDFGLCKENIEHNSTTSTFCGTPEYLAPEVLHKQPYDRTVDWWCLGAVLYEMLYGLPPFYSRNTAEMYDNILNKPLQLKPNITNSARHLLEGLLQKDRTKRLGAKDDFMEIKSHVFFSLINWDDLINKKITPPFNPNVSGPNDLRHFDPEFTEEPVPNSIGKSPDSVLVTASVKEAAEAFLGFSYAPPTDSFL

[20] = target: Tyrosine-protein kinase CSK (Homo sapiens) (UniProt P41240); assay: Inhibition of human CSK at 100 nM
[21] = target: Misshapen-like kinase 1 (Homo sapiens) (UniProt Q8N4C8); assay: Inhibition of human MINK1 at 100 nM
[22] = target: Maternal embryonic leucine zipper kinase (Homo sapiens) (UniProt Q14680); assay: Inhibition of human MELK at 100 nM
[23] = target: Tyrosine-protein kinase Yes (Homo sapiens) (UniProt P07947); assay: Inhibition of human YES1 at 100 nM
[24] = target: Casein kinase 2 (Homo sapiens) (UniProt P67870+P68400+P19784+Q8NEV1); assay: Inhibition of human CK2 at 100 nM; assay type: protein assay
[25] = target: cGMP-dependent protein kinase (Plasmodium falciparum, UniProt W7JX98); assay: Inhibition of Plasmodium falciparum protein kinase G
[26] = target: AMP-activated protein kinase, AMPK (Homo sapiens) (UniProt P54646+O43741+P54619+Q9UGJ0+Q9Y478+Q13131+Q9UGI9); assay: Inhibition of human AMPK at 100 nM; assay type: protein-complex assay

SMILES	inhibition [1] [%]	inhibition [2] [%]	inhibition [3] [%]	inhibition [5] [%]	inhibition [6] [%]	inhibition [7] [%]	inhibition [8] [%]	inhibition [9] [%]	inhibition [10] [%]	inhibition [11] [%]	inhibition [12] [%]	inhibition [13] [%]	inhibition [14] [%]	inhibition [15] [%]	inhibition [16] [%]	inhibition [17] [%]	inhibition [18] [%]	inhibition [19] [%]	inhibition [20] [%]	inhibition [21] [%]	other results
CN1CCC(c2nc(-c3ccc(F)c(NS(C)(=O)=O)c3)c(-c3ccnc(NCC4CC4)n3)s2)CC1	< 70	< 70	< 70	< 70	< 70	< 70	< 70	< 70	< 70	< 70	< 70	< 70	< 70	< 70	< 70	< 70	< 70	< 70	< 70	< 70	Papp [4]: 5.7 ×10⁻⁶ cm/s; inhibition [22]: < 70%; inhibition [23]: < 70%; inhibition [24]: < 70%
CN1CCC(c2nc(-c3cccc(S(C)(=O)=O)c3)c(-c3ccnc(Nc4ccc(N5CCNCC5)cc4)n3)s2)CC1	< 70	< 70	< 70	70 to 90	< 70	< 70	< 70	< 70	> 90	< 70	< 70	< 70	< 70	< 70	< 70	< 70	< 70	< 70	< 70	< 70	IC50 [25]: 0.9 nM; inhibition [26]: < 70%; inhibition [22]: < 70%; inhibition [23]: < 70%; inhibition [24]: < 70%
